Values joined by “and” are separate entries in the source; they are usually repeats but may differ in a detail not shown here. Equal values may be shown once. “Also recorded” adds a separate entry of the source. Read-outs that look alike come from different tables or passages of the source.

The target in one assay is αHL pore (Staphylococcus aureus, UniProt P09616). The assay is classed as biochemical.
The target in a further assay is αHL•βCD (Staphylococcus aureus, UniProt P09616). Description: biochemical. The assay is classed as biochemical. To be noted: for K^Af (formation constant of αHL•βCD•A) / ΔG of analyte binding to αHL•βCD: pH 3.0.
αHL•βCD, sequence (P09616 27-319 limits assumed): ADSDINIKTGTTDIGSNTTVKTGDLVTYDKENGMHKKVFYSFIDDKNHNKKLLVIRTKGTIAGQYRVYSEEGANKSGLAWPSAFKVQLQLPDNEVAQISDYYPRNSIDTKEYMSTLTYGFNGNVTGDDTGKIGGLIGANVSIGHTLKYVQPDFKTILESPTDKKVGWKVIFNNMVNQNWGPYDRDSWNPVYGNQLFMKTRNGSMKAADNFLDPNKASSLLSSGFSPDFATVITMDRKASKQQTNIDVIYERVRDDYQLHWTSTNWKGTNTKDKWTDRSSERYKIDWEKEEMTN
A further assay concerns the target WT-αHL pore (Staphylococcus aureus, UniProt P09616). The assay is classed as biochemical. The note with it: pH 7.5.
Assay [1] is classed as binding. To be noted: pH 3.0.
For assay [2] the following is noted: cited from earlier work.

αHL pore, sequence (P09616 27-319 limits assumed): as above
WT-αHL pore, sequence (P09616 27-319 limits assumed): as above

Regarding α-cyclodextrin, the “block of the ionic current” value at αHL pore is reported as “reversible partial blocks”.
The Kd is a measure of binding affinity in units of concentration. A higher Kd goes with weaker binding. As for `NC(=O)C12CC3CC(CC(C3)C1)C2` [1-adamantanecarboxamide], at αHL•βCD, the “(IP·C·A IP·C)/(IP·C·A-IP)” value was 0.333 ± 0.005; the affinity, expressed as Kd, was 34.2 ± 2.77 µM; the “Residence time (τ) of the analyte on αHL·βCD” value (from here on “Residence time … on αHL·βCD”) came to 3.99 ± 0.18 ms.
On to “heptakis-6-sulfato-β-cyclodextrin [s7βCD]”, for which, on WT-αHL pore, the “PK+/PNa+” value came to 0.92; the “dwell time (τ) of adapter on WT-αHL pore” value was 846 ± 37 ms; the “g (conductance)” value was 53 pS and 53 ± 6 pS.
For the compound `OCCC12CC3CC(CC(C3)C1)C2` [1-adamantaneethanol], on αHL•βCD, the “(IP·C·A IP·C)/(IP·C·A-IP)” value came out at 0.348 ± 0.003, binding was put at a Kd of 3.33 ± 1.07 µM and the “Residence time … on αHL·βCD” value was found to be 30.6 ± 2.42 ms.
Take `Cl.NC1C2CC3CC(C2)CC1C3` (stereo not shown) [2-adamantanamine hydrochloride]: on αHL pore (hydrochloride), the “effect on the completely open channel” value was “does not affect; also recorded: no effect”. Also, in assay [1], the “K^Af (formation constant of analyte with βCD in solution)” value is given as 9.84±2.19×10^3 M^−1 and the “ΔG of analyte binding to βCD in solution” value was -5.5 kcal/mol. Also, at αHL•βCD, the “(IP·C·A IP·C)/(IP·C·A-IP)” value was determined as 0.286 ± 0.004, the dissociation constant (Kd) amounted to 98.6 ± 14.3 µM, the “Residence time … on αHL·βCD” value is recorded as 2.54 ± 0.21 ms and the “conductance of the partially blocked channel (αHL•βCD) with guest” value turned out to be 126.5 pS. Also, on αHL•βCD, the “residence time (τ) of guest” value was 2.54 ms; the “residence time of βCD•A on αHL compared with βCD” value is given as “greater than βCD itself”; the “single channel current level, additional block of αHL•βCD” value was −5.7 pA; the “K^Af (formation constant of αHL•βCD•A)” value was 1.03±0.15×10^4 M^−1. For the same compound, on αHL•βCD, the “ΔG of analyte binding to αHL•βCD” value is -5.5 kcal/mol.
In the case of γ-cyclodextrin [γCD], at αHL pore, the “block of the ionic current” value is given as “reversible partial blocks”. Besides, the “g (conductance)” value on WT-αHL pore is 328 pS and 328 ± 4 pS.
As to `O=C(O)C12CC3CC(CC(C3)C1)C2` [1-adamantanecarboxylic acid], the “binding to the pore without adapter/carrier” value at αHL pore is listed as “does not bind to the pore”. In assay [1], the “K^Af (formation constant of analyte with βCD in solution)” value is recorded as 5.76±1.50×10^4 M^−1 and the “ΔG of analyte binding to βCD in solution” value was -6.5 kcal/mol. Besides, the “Literature ΔG for binding to βCD” value in assay [2] (pH 4.05) is -7.5 kcal/mol. For the same compound, in assay [2] (pH 7.2), the “Literature ΔG for binding to βCD” value is -6.4 kcal/mol. For the same compound, at αHL•βCD, the “(IP·C·A IP·C)/(IP·C·A-IP)” value is given as 0.346 ± 0.005, the Kd turned out to be 7.53 ± 1.16 µM, the “Residence time … on αHL·βCD” value was 14.0 ± 0.79 ms and the “conductance of the partially blocked channel (αHL•βCD) with guest” value is reported as 112.2 pS. Further, at αHL•βCD, the “residence time (τ) of guest” value was 14.0 ms; the “single channel current level, additional block of αHL•βCD” value is listed as −4.7 pA; the “K^Af (formation constant of αHL•βCD•A)” value is on record as 1.35±0.19×10^5 M^−1; the “ΔG of analyte binding to αHL•βCD” value was -7.0 kcal/mol.
For the compound `CC(=O)NC12CC3CC(CC(C3)C1)C2` [N-(1-adamantyl)acetamide, N-(1-adamantyl)-acetamide], at αHL•βCD, the “(IP·C·A IP·C)/(IP·C·A-IP)” value is 0.348 ± 0.003, the dissociation constant Kd is 14 ± 2.24 µM and the “Residence time … on αHL·βCD” value stood at 7.32 ± 2.13 ms.
As to `Cl.NC12CC3CC(CC(C3)C1)C2` [1-adamantanamine hydrochloride], at αHL•βCD, the “(IP·C·A IP·C)/(IP·C·A-IP)” value was determined as 0.294 ± 0.005, the Kd is 109 ± 4.95 µM and the “Residence time … on αHL·βCD” value is 1.42 ± 0.14 ms.
As for β-cyclodextrin [βCD], on αHL pore, the “block of the ionic current” value is reported as “reversible partial blocks”, the “partial block of the channel” value is 64% and the “single channel current level with βCD bound” value is −11.5 pA. Moreover, on αHL pore (pH 3), the “K^Cf (equilibrium formation constant αHL•βCD)” value was found to be 475 M⁻¹, the “conductance of αHL in the presence of βCD” value is 272 pS, the “k^Coff” value worked out at 115 s⁻¹ and the “k^Con” value was 54600 M⁻¹ s⁻¹. On WT-αHL pore, the “dwell time (τ) of adapter on WT-αHL pore” value was determined as 0.84 ms; the “g (conductance)” value is 240 pS and 240 ± 5 pS.

These data come from US6426231B1 (priority 1998, dated 2002).
